Some results are limits rather than exact numbers.

One data set concerns β-tubulin. As to the kind of experiment: Cellular thermal shift assay (CETSA), β-tubulin target engagement. Format: binding, human. The settings on record: fresh VTC-037 GSC lysates, 3-fold dilutions 222.2-2.7 nM, 1 h, heat challenge 57 °C (Tagg(75)) 20 min, immunoblot, normalized to DMSO control. The method, then:
For an initial determination of the melting profile of α- and β- tubulin, fresh lysates of GSCs prepared in non-denaturing buffer were dispensed into 96-well PCR plate in stem cell medium (approximately 10,000 cells/well/50 µl), and then subjected to temperature gradient (37–65 °C) for 20 min. Subsequently, centrifugation was performed at 14,000 rpm to sediment the unstable protein content. Supernatant was collected and SDS-PAGE gel was run, and immunodetection was performed to detect α- and β- tubulin using specific primary antibodies described above. A rabbit antibody against β-actin (Cell Signaling Technology; 4970) was used as negative control. Band intensities were quantified on LI-COR C-DiGit Blot Scanner, and subsequently Tagg(50) and Tagg(75) values were calculated for α- and β- tubulin. In a subsequent run, fresh lysates of GSCs were treated at various doses with 3-fold dilutions (222.2, 74.0, 24.7, 8.2 and 2.7 nM) of peptides JM2 and JM2-scrambled, together with DMSO as control, for 1 h. Samples were then subjected to heat challenge at 57 °C for 20 min, and unstable protein was removed by centrifugation step. Following an immunoblotting step, band intensities of the stable tubulin was quantified, and normalized to DMSO control. EC50 values of engagement for both peptide with α- and β- tubulin were subsequently calculated.

The subject of another data set is VTC-034 GSCs. As to the kind of experiment: Peptide uptake by confocal fluorescence microscopy, VTC-034 GSCs. Format: in vitro ADME, human. Conditions: 50 μM, 24 h, fluorophore-conjugated streptavidin. The method, then: Cells were washed once with warm PBS before fixing in 4% paraformaldehyde for 20 min at room temperature or ice-cold methanol for 5 min on ice, washed twice, and held in PBS at 4°C until immunostaining was conducted. Cells were permeabilized and blocked in 5% normal goat or donkey serum (Fisher Scientific) and 0.1% Triton X-100 in PBS for 2 h at room temperature. Primary antibodies rabbit anti-Cx43 (MilliporeSigma; C6219), mouse anti-pan Cadherin (MilliporeSigma; C1821), or mouse anti-α-tubulin (MilliporeSigma; T6199) were diluted in blocking buffer and labeling was performed overnight at 4 °C. Cells were washed six times with PBS (2 × quick, 2 × 10 min, 2 × 5 min) prior to incubating with goat anti-mouse or -rabbit IgG secondary antibodies (Thermo Fisher) conjugated to Alexa Fluor 488 (A-11029; A-11034), Alexa Fluor 555 (A-21424; A-21429), or Alexa Fluor 647 (A-21236; A-21245) for confocal; or donkey anti-mouse or -rabbit IgG secondary antibodies conjugated to CF568 (Biotium; 20105 and 20098) or Alexa Fluor 647 (Jackson Immunoresearch; 715-605-151 and 711-605-152) for stochastic optical reconstruction microscopy (STORM; see section below), for 1 h at room temperature. DAPI (Thermo Fisher) was included with secondary antibodies to counterstain nuclei for confocal only and was omitted from labeling for STORM. […]

The next data set has as its system LN229/GSC tumor. Put plainly: TUNEL and H&E of LN229/GSC-derived tumor sections. The class given is in vivo, mouse (BALB/c nude), human LN229/GSC cells. Conditions: LN229/GSC tumors, 300 µM intratumorally every other day, after 33 days. As for the experimental part:
Tumors were harvested, snap-frozen in Tissue-Tek® O.C.T. compound (Sakura), and stored at −80 °C until sectioning. […] sections were cut using a Leica CM1850 UV cryostat, placed onto Superfrost Plus^TM slides (Fisher Scientific) and fixed in −20 °C acetone for 5 minutes before air drying. Slides were stored at −80 °C prior to labeling. Tumors sections were then rehydrated in PBS for 5 min, permeabilized in 0.1% Triton X-100 in PBS for 1 h at room temperature, and washed four times with PBS (2 x quick, 2 × 5 min) prior to incubating with streptavidin conjugated to Alexa Fluor 647 (Thermo Fisher) diluted in high-salt buffer (0.5 M NaCl, 10 mM Hepes) for 30 min at room temperature. Tumor sections were then washed four times with high-salt buffer (2 x quick, 2 × 10 min), and twice with PBS (2 × 5 min) before using One-step TUNEL In Situ Apoptosis kit (Green Elab Fluor® 488; Elabscience), according to manufacturer’s instructions. Tumor sections were then washed in PBS (3 × 5 min), incubated with DAPI (Thermo Fisher) in PBS for 5 min, and washed again with PBS (4 × 5 min) before the slides were mounted using Prolong Gold Antifade (Thermo Fisher). GBM22-derived tumor sections were analyzed using fluorescence confocal microscopy on a Nikon NIE upright confocal microscope, while LN229/GSC-derived tumor sections were observed using LED illumination microscopy on a Revolve microscope. For hematoxylin and eosin (H&E) staining, tumor sections were stained using a Histo-Tek® SL Slide Stainer (Sakura), and observed using phase contrast microscopy on a Revolve microscope. Investigators were blinded for all image acquisition experiments.

For “GSDVFKRKFVDRKVG [JM2-scrambled, reference compound]”, the EC50 in the data set with β-tubulin is greater than 200 nM. Besides, the “Peptide localization after uptake” value in the data set with VTC-034 GSCs is on record as “localized within the cytoplasm of GSCs”. Further, the “Cell death in tumor sections (TUNEL)” value in the data set on LN229/GSC tumor is recorded as “no significant cell death was observed”.

VFFKGVKDRVKGRSD [JM2]: the EC50 with β-tubulin is 7.9 nM. For the same sequence, in the data set with VTC-034 GSCs, the “Peptide localization after uptake” value is “localized within the cytoplasm of GSCs”. Moreover, in the data set with LN229/GSC tumor, the “Cell death in tumor sections (H&E)” value is reported as “further confirmed by H&E staining” and the “Cell death in tumor sections (TUNEL)” value was “increased LN229-derived GSC death that positively correlated with the presence of JM2 within the tumors”.
